# From PubChem BioAssay (NCI)
# Values joined by “and” are separate entries in the source; they are usually repeats but may differ in a detail not shown here. Equal entries are not always repeated.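 Each compound was tested at five concentrations against cells in 96-well plates for 48 hours. Abbreviation: GI50, concentration required for 50% inhibition of growth. The concentration for full growth arrest is given as TGI.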
# Experiments:
# Assay in all cases: DTP human tumour cell line panel, 48 h
# OVCAR-5 ovarian = system: OVCAR-5 ovarian
# IGROV1 ovarian = system: IGROV1 ovarian
# SF-295 CNS = system: SF-295 CNS
# NCI-H226 lung = system: NCI-H226 lung
# OVCAR-3 ovarian = system: OVCAR-3 ovarian
# RXF 393 renal = system: RXF 393 renal
# SF-539 CNS = system: SF-539 CNS
# SNB-75 CNS = system: SNB-75 CNS
# BT-549 breast = system: BT-549 breast
# 786-0 renal = system: 786-0 renal
SMILES,GI50 (OVCAR-5 ovarian) [µM],TGI (OVCAR-5 ovarian) [µM],GI50 (IGROV1 ovarian) [µM],TGI (IGROV1 ovarian) [µM],GI50 (SF-295 CNS),TGI (SF-295 CNS) [µM],GI50 (NCI-H226 lung) [µM],TGI (NCI-H226 lung) [µM],GI50 (OVCAR-3 ovarian) [µM],TGI (OVCAR-3 ovarian) [µM],GI50 (RXF 393 renal) [µM],TGI (RXF 393 renal) [µM],GI50 (SF-539 CNS) [µM],TGI (SF-539 CNS) [µM],GI50 (SNB-75 CNS) [µM],TGI (SNB-75 CNS) [µM],GI50 (BT-549 breast) [µM],TGI (BT-549 breast) [µM],GI50 (786-0 renal),TGI (786-0 renal) [µM]
FC(F)(F)c1ccc(-c2cnc(Br)nc2NC2CCCCCC2)cc1,> 100,> 100,> 100,> 100,69.6 µM,> 100,24.6,> 100,70.8,> 100,24.9,> 100,> 100,> 100,> 100,> 100,72.9,> 100,91.2 µM,> 100
C[Se]C(=O)CC1=C2C=C(F)C=CC2/C(=C\c2ccc(S(C)=O)cc2)C1C (stereo not given),0.114,1.49,0.0972,3.17,< 0.0156 µM,0.0465,< 0.0164,0.317,0.0336,0.26,0.0289,0.8,0.0371,0.0923,< 0.01,< 0.036,0.0581,0.266,0.207 µM,1.71
O=C(/C=C/c1ccco1)Nc1ncc(Cc2ccc(F)cc2)s1,0.244,> 100,0.167,> 100,0.0709 µM,> 100,,> 100,0.0336,0.141,0.122,0.593,0.0686,0.379,0.0547,0.706,0.368,> 25.3,0.157 µM,> 100
CCNCCNc1cc(-c2ccc(F)cc2)c(C#N)c2nc3ccccc3n12,4.45,15.9,7.26,22.8,1.8 µM,3.79,12,27,1.97,4.36,1.71,3.44,1.7,3.24,1.81,4.39,4.53,15.5,1.77 µM,3.45
CC1OC(O)C(O)C(O)C1O (stereo not given),,> 100,,> 100,,> 100,,> 100,,> 100,,> 100,,> 100,,> 100,,> 100,,> 100
O=C(/C=C\c1ccnc2ccccc12)c1ccc([N+](=O)[O-])cc1,> 60.6,> 100,16,> 79.6,23.4 µM,> 100,6.35,> 100,7.23,43.2,12,> 66,6.82,24.9,> 75.4,> 100,11.2,27.4,16.9 µM,> 89
COc1ccc2c3c(c(OCCCN(C)C)nc2c1)-c1ccc(Cl)cc1C3=O,9.66,22.9,1.73,25.9,10.6 µM,23.8,3.52,21.7,3.55,16.7,7.24,20.1,8.2,21.3,1.55,18.3,14.2,28.3,1.76 µM,3.64
Oc1ccc2ccccc2c1N=Nc1ccccc1,,> 100,,> 100,39.6 µM and > 90.3 µM,> 100,,> 100,,> 100,,> 100,,> 100,,> 100,,> 100,35.4 µM and > 100 µM,> 100
CC#CC(=O)N1CCC[C@H]1c1nc(-c2ccc(C(=O)Nc3ccccn3)cc2)c2c(N)nccn12,> 100,> 100,18,> 83.8,> 86.1 µM,> 100,> 65.4,> 100,37.2,> 100,61.7,> 100,> 100,> 100,24.5,> 100,> 96.5,> 100,> 100 µM,> 100
C[C@H]1[C@@H](OCC(CO[C@H]2O[C@@H]3O[C@@]4(C)CC[C@H]5[C@H](C)CC[C@@H]([C@H]2C)[C@@]35OO4)=NOCC(=O)O)OC2O[C@@]3(C)CC[C@H]4[C@H](C)CC[C@@H]1[C@@]24OO3 (stereo not given in full),0.497,30.3,0.0673,21.3,0.1 µM,17.3,0.0375,20.1,< 0.0188,,0.0821,15.8,0.442,20.9,0.698,15.4,0.473,20.7,0.112 µM,23
O=c1[nH]c(-c2ccc(C(F)(F)F)cc2)nc2c1CSCC2,79.9,> 100,43.1,> 100,52.7 µM,> 100,30.4,> 100,27,> 100,19.6,65.8,> 100,> 100,21.2,56.2,> 94.3,> 100,35.3 µM,> 100
NC(CSC(c1ccccc1)(c1ccccc1)c1ccc2ccccc2c1)C(=O)O (stereo not given),0.323,16.9,0.124,21.6,0.0246 µM,2.64,9.27,24.5,0.0287,0.0992,0.0572,21.5,0.0384,3.07,0.121,30.6,0.144,22.8,0.0763 µM,1.19
O=[As](O)(O)c1ccc(Cc2ccc([As](=O)(O)O)cc2)cc1,,4.65,,1.94,,8.46,,7.7,,2.64,,1.53,,0.542,,3.12,,3.09,,1.29
COc1ccc(/C=C(\C#N)c2cc3ccccc3n2C)cc1,0.852,> 100,0.526,> 100,0.355 µM,> 28.2,1.87,> 70.8,0.336,3.19,0.244,0.834,0.305,1.22,0.198,5.5,0.627,> 100,0.613 µM,> 100
COc1ccc(/C=C2\N=C3SC=C(N)N3C2=O)cc1,2.13,12,0.499,2.39,0.642 µM,14.2,1.16,7.04,1.14,2.98,0.303,1.58,1.5,4.07,0.757,7.61,0.73,3.84,1.28 µM,2.7
C[C@@H]1CC[C@@]2(OC1)O[C@H]1C[C@H]3[C@@H]4CC=C5C[C@@H](O[C@@H]6O[C@H](CO)[C@@H](O[C@@H]7O[C@@H](CO)[C@H](O)[C@H]7O)[C@H](O)[C@H]6O[C@@H]6O[C@@H](C)[C@H](O)[C@@H](O)[C@H]6O)CC[C@]5(C)[C@H]4CC[C@]3(C)[C@H]1[C@@H]2C,1.29,2.56,1.16,2.38,1.71 µM,3.11,1.33,3.07,1.75,3.12,0.388,1.58,0.758,2.02,1.18,2.46,1.5,2.94,1.37 µM,2.68
O=Nc1c(O)ccc2ccccc12,1.83,3.44,2.15,5.78,11.7 µM,24.4,15.6,33.4,2.55,9.15,6.54,19.5,2.59,6.29,2.52,14.5,12.2,24.9,10.2 µM,22
CCSC1=CC(=O)c2ccccc2C1=O,16.9,32.5,4.86,17.1,15.3 µM,30.7,16.8,32.9,1.46,2.81,2.09,4.54,12.7,28.2,14.8,29.7,14.8,28.3,9.25 µM,22.3
CC(=O)N1CC(F)(F)c2c(Sc3ncc(N4CCC5(CC4)COC[C@H]5N)nc3N)cccc21,15.4,> 100,2.47,86.9,15.2 µM,50.7,20.9,> 100,16.9,61.5,1.81,9.28,11.2,23.3,3.19,38.2,10.8,53.7,10.8 µM,27.1
